In patent EP4745134A1 (Jiangsu Yahong Meditech Co., Ltd., priority 2023, dated 2025):
Like-named read-outs stand apart in the source and are kept apart here.

Columns and labels:
[1] = tested on: HCT116 MTAP KO cells; assay: Inhibitory activity against cell proliferation (CellTiter Glo, 6 days), HCT116 MTAP KO; format: cell-based; details: for IC50: HCT116 MTAP KO cells, 6 days, CellTiter Glo, read-out: HCT116 MTAP KO IC50; for Selectivity HCT 116-WT/ HCT116 MTAP KO: ratio of IC50 HCT116-WT / HCT116 MTAP KO
Method in brief: (§1)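 HCT116 wild-type or MTAP-knockout cells (250/well, McCoy's 5A + 10% FBS) treated after overnight culture with 8-point 4-fold dilutions from 10000 nM for 6 days at 37 °C. Viability read by CellTiter Glo luminescence on day 7; IC50 calculated against DMSO controls.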

[2] = molecular target: PRMT5-MTA (Homo sapiens, UniProt O14744); assay: Enzymatic inhibitory activity against PRMT5-MTA (AlphaScreen); format: biochemical
PRMT5-MTA, sequence (O14744 whole entry): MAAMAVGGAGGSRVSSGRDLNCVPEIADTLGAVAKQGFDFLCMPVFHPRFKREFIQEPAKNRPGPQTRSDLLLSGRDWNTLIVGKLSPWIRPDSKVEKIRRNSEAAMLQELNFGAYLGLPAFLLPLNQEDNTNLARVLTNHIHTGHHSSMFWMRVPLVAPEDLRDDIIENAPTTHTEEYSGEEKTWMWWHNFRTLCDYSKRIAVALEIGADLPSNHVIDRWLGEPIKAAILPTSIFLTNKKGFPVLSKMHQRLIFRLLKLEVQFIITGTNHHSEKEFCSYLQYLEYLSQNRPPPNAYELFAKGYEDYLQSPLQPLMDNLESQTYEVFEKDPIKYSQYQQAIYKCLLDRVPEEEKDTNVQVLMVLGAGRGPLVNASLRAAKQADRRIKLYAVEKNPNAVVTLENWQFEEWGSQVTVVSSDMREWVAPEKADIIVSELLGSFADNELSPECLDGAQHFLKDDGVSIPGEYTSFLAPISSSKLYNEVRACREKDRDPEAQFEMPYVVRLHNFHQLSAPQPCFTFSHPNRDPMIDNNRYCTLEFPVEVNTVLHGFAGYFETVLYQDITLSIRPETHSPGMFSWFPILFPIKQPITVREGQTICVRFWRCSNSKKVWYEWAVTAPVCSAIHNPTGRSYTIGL
PRMT5-MTA, sequence (Q9BQA1 whole entry partner): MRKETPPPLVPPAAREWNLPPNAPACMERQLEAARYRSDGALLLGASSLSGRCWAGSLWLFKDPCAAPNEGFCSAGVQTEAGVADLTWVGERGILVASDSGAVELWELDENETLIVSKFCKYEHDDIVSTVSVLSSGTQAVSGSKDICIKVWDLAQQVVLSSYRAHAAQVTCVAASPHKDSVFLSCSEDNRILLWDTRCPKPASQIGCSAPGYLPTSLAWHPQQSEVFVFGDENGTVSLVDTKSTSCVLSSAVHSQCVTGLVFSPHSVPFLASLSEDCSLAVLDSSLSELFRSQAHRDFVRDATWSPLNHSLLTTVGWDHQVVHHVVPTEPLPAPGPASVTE
Method in brief: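 PRMT5/[…] (1 nM) was preincubated for 30 min at room temperature with 1 µM […] and 2.5 µM SAM, then exposed to compound (10-point, 3-fold from 1000 nM) for 15 min at 23 °C. Histone H4 substrate (5 nM) was added and reacted for 45 min at 23 °C. Symmetric dimethyl-R3 H4 was detected by AlphaScreen and IC50 calculated.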

[3] = tested on: HCT116-WT cells; assay: Inhibitory activity against cell proliferation (CellTiter Glo, 6 days), HCT116-WT; format: cell-based; details: HCT116-WT cells, 6 days, CellTiter Glo, read-out: HCT116-WT IC50
Method in brief: as §1

## Cc1cc2nc(N)c3cnn(C)c3c2cc1C(=O)N1C[C@@H](C)CN1c1ncccc1F (single isomer, unassigned) [Example 464]
[1]; Homo sapiens, HCT-116, 144 h
  IC50: 17 nM
[1]
  Selectivity HCT 116-WT/ HCT116 MTAP KO: 64.06
[2]; read-out: IC50
  IC50: 3.1 nM
[3]; 144 h
  IC50: 1090 nM

## Cc1cc2nc(N)c3cnn(C)c3c2cc1C(=O)N1C[C@H](C)CN1c1ncccc1F (single isomer, unassigned) [Example 465]
[1]; Homo sapiens, HCT-116, 144 h
  IC50: 23 nM
[1]
  Selectivity HCT 116-WT/ HCT116 MTAP KO: 45.35
[2]; read-out: IC50
  IC50: 3.4 nM
[3]; 144 h
  IC50: 1040 nM

## CC1CN(C(=O)c2cc3c(cc2F)nc(N)c2cnn(C)c23)N(c2ncccc2F)C1 (single isomer, unassigned) [Example 466]
[1]; Homo sapiens, HCT-116, 144 h
  IC50: 13 nM
[1]
  Selectivity HCT 116-WT/ HCT116 MTAP KO: 50.77
[2]; read-out: IC50
  IC50: 4.4 nM
[3]; 144 h
  IC50: 660 nM

## Cc1cc2cc(C(=O)N(Cc3ccc(C(F)(F)F)cn3)N(C)c3c(F)cccc3F)ccc2nc1N [Compound 116, 2-amino-N'-(2,6-difluorophenyl)-N',3-di methyl-N-((5-(trifluoromethyl)pyridin-2-yl)methyl)quinoline-6-carbohydrazide]
[1]; Homo sapiens, HCT-116, 144 h
  IC50: 78 nM
[1]
  Selectivity HCT 116-WT/ HCT116 MTAP KO: 37.85
[2]; read-out: IC50
  IC50: 4.7 nM
[3]; 144 h
  IC50: 2950 nM

## Cc1cc2cc(C(=O)N(Cc3ccc(C(F)(F)F)cn3)N(C)c3ncc4[nH]ccc4n3)ccc2nc1N [Compound 120, 2-amino-N',3-dimethyl-N'-(5H-pyrrolo[3,2-d]pyrimidin-2-yl)-N-((5-(trifluoromethyl)pyridin-2-yl)methyl)quinoline-6-carbo hydrazide]
[1]; Homo sapiens, HCT-116, 144 h
  IC50: 10 nM
[1]
  Selectivity HCT 116-WT/ HCT116 MTAP KO: 17.00
[2]; read-out: IC50
  IC50: 2.5 nM
[3]; 144 h
  IC50: 170 nM

## Cc1cc2cc(C(=O)N(Cc3ccc(C(F)(F)F)cn3)N(C)c3ncc4c(ccn4C)n3)ccc2nc1N [Compound 127, 2-amino-N',3-dimethyl-N'-(5-methyl-5H-pyrrolo[3,2-d]pyrimidin-2-yl)-N-((5-(trifluoromethyl)pyridin-2-yl)methyl)quinoline-6-carbohydrazide]
[1]; Homo sapiens, HCT-116, 144 h
  IC50: 115 nM
[1]
  Selectivity HCT 116-WT/ HCT116 MTAP KO: 16.55
[2]; read-out: IC50
  IC50: 4.9 nM
[3]; 144 h
  IC50: 1900 nM

## Cc1cc2cc(C(=O)N(Cc3ccc(N4CC(F)(F)C4)cn3)N(C)c3ncccn3)ccc2nc1N [Compound 225, 2-amino-N-((5-(3,3-difluoroazetidin-1-yl)pyridin-2-yl)methyl)-N',3-dimethyl-N'-(pyrimidin-2-yl)quinoline-6-carbohydrazide]
[1]; Homo sapiens, HCT-116, 144 h
  IC50: 204 nM
[1]
  Selectivity HCT 116-WT/ HCT116 MTAP KO: 13.00
[2]; read-out: IC50
  IC50: 16 nM
[3]; 144 h
  IC50: 2650 nM

## Cc1cc2cc(C(=O)N(Cc3ccc4ncccc4n3)N(C)c3ncccn3)ccc2nc1N [Compound 283, N-((1,5-naphthyridin-2-yl)methyl)-2-ami no-N',3-dimethyl-N'-(pyrimidin-2-yl)qui noline-6-carbohydrazide]
[1]; Homo sapiens, HCT-116, 144 h
  IC50: 244 nM
[1]
  Selectivity HCT 116-WT/ HCT116 MTAP KO: 11.11
[2]; read-out: IC50
  IC50: 1.7 nM
[3]; 144 h
  IC50: 2710 nM

## Cc1cnc(N2CC(C)CN2C(=O)c2cc3c(cc2C)nc(N)c2cnn(C)c23)c(F)c1 (stereo not shown) [Compound 490, (4-amino-1,7-dimethyl-1H-pyrazolo[4,3-c]quinolin-8-yl)(2-(3-fluoro-5-methylpyridin-2-yl)-4-methylpyrazolidin-1-yl)metha none]
[1]; Homo sapiens, HCT-116, 144 h
  IC50: 26 nM
[1]
  Selectivity HCT 116-WT/ HCT116 MTAP KO: 38.96
[2]; read-out: IC50
  IC50: 5.1 nM
[3]; 144 h
  IC50: 1010 nM

## [2H]C([2H])([2H])n1ncc2c(N)nc3cc(Cl)c(C(=O)N4CC(C)CN4c4ncccc4F)cc3c21 (stereo not shown) [Compound 508, (4-amino-7-chloro-1-(methyl-D3)-1H-pyrazolo[4,3-c]quinolin-8-yl)(2-(3-fluoropyridin-2-yl)-4-methylpyrazolidin-1-yl)meth anone]
[1]; Homo sapiens, HCT-116, 144 h
  IC50: 114 nM
[1]
  Selectivity HCT 116-WT/ HCT116 MTAP KO: 23.78
[2]; read-out: IC50
  IC50: 16.6 nM
[3]; 144 h
  IC50: 2710 nM

## [2H]C([2H])([2H])N(c1ncccn1)N(Cc1ccc(C(F)(F)F)cn1)C(=O)c1ccc2nc(N)c(C)cc2c1 [Example 2, 2-amino-3-methyl-N'-(methyl-d3)-N'-(pyrimidin-2-yl)-N-((5-(trifluoromethyl)pyridin-2-yl)methyl)quinoline-6-carbohydrazide]
[1]; Homo sapiens, HCT-116, 144 h
  IC50: 30 nM
[1]
  Selectivity HCT 116-WT/ HCT116 MTAP KO: 27.33
[2]; read-out: IC50
  IC50: 2.1 nM
[3]; 144 h
  IC50: 820 nM

## Cc1cc2cc(C(=O)N(Cc3ccc(C(F)(F)F)cn3)N(C)c3ncccc3F)ccc2nc1N [Example 5, 2-amino-N'-(3-fluoropyridin-2-yl)-N',3-di methyl-N-((5-(trifluoromethyl)pyridin-2-yl)methyl)quinoline-6-carbohydrazide]
[1]; Homo sapiens, HCT-116, 144 h
  IC50: 42 nM
[1]
  Selectivity HCT 116-WT/ HCT116 MTAP KO: 20.29
[2]; read-out: IC50
  IC50: 1.5 nM
[3]; 144 h
  IC50: 852 nM

## CCN(c1ncccn1)N(Cc1ccc(C(F)(F)F)cn1)C(=O)c1ccc2nc(N)c(C)cc2c1 [Example 6, 2-amino-N'-ethyl-3-methyl-N'-(pyrimidin-2-yl)-N-((5-(trifluoromethyl)pyridin-2-yl)methyl)quinoline-6-carbohydrazide]
[1]; Homo sapiens, HCT-116, 144 h
  IC50: 95 nM
[1]
  Selectivity HCT 116-WT/ HCT116 MTAP KO: 14.55
[2]; read-out: IC50
  IC50: 1.5 nM
[3]; 144 h
  IC50: 1380 nM

## CN(c1ccccc1)N(Cc1ccc(C(F)(F)F)cn1)C(=O)c1ccc2nc(N)c3cnn(C)c3c2c1 [Example 15, 4-amino-N',1-dimethyl-N'-phenyl-N-((5-(trifluoromethyl)pyridin-2-yl)methyl)-1H-pyrazolo[4,3-c]quinoline-8-carbohydrazide]
[1]
  IC50: 26 nM
  Selectivity HCT 116-WT/ HCT116 MTAP KO: 18.27
[2]; read-out: IC50
  IC50: 3.7 nM
[3]
  IC50: 475 nM

## Cc1cc2cc(C(=O)N(Cc3ccc(C(F)(F)F)cn3)n3ccc4cccnc43)ccc2nc1N [Example 21, 2-amino-3-methyl-N-(1H-pyrrolo[2,3-b]pyridin-1-yl)-N-((5-(trifluoromethyl)pyridin-2-yl)methyl)quinoline-6-carboxamide]
[1]; Homo sapiens, HCT-116, 144 h
  IC50: 85 nM
[1]
  Selectivity HCT 116-WT/ HCT116 MTAP KO: 27.53
[2]; read-out: IC50
  IC50: 1.9 nM
[3]; 144 h
  IC50: 2340 nM

## Cc1cc2cc(C(=O)N(Cc3ccc(C(F)(F)F)cn3)N3CCc4cccnc43)ccc2nc1N [Example 22, 2-amino-N-(2,3-dihydro-1H-pyrrolo[2,3-b]pyridin-1-yl)-3-methyl-N-((5-(trifluoromethy 1)pyridin-2-yl)methyl)quinoline-6-carboxamide]
[1]; Homo sapiens, HCT-116, 144 h
  IC50: 129 nM
[1]
  Selectivity HCT 116-WT/ HCT116 MTAP KO: 17.78
[2]; read-out: IC50
  IC50: 4.3 nM
[3]; 144 h
  IC50: 2290 nM

## CN(c1ncccn1)N(Cc1ccc(C(F)(F)F)cn1)C(=O)c1ccc2nc(N)c(C3CC3)cc2c1 [Example 25, 2-amino-3-cyclopropyl-N'-methyl-N'-(pyrimidin-2-yl)-N-((5-(trifluoromethyl)pyridin-2-yl)methyl)quinoline-6-carbohydrazide]
[1]; Homo sapiens, HCT-116, 144 h
  IC50: 110 nM
[1]
  Selectivity HCT 116-WT/ HCT116 MTAP KO: 25.64
[2]; read-out: IC50
  IC50: 2 nM
[3]; 144 h
  IC50: 2820 nM

## CC(C)c1cc2cc(C(=O)N(Cc3ccc(C(F)(F)F)cn3)N(C)c3ncccn3)ccc2nc1N [Example 26, 2-amino-3-isopropyl-N'-methyl-N'-(pyrimidin-2-yl)-N-((5-(trifluoromethyl)pyridin-2-yl)methyl)quinoline-6-carbohydrazide]
[1]; Homo sapiens, HCT-116, 144 h
  IC50: 444 nM
[1]
  Selectivity HCT 116-WT/ HCT116 MTAP KO: 20.73
[2]; read-out: IC50
  IC50: 2.4 nM
[3]; 144 h
  IC50: 9200 nM

## CN(C(=O)c1cc2c(cc1F)nc(N)c1cnn(C)c12)N1CCc2nc(Br)ccc21 [Example 32, 4-amino-N-(5-bromo-2,3-dihydro-1H-pyrrolo[3,2-b]pyridin-1-yl)-7-fluoro-N,1-dimethy 1-1H-pyrazolo[4,3-c]quinoline-8-carboxamide]
[1]; Homo sapiens, HCT-116, 144 h
  IC50: 122 nM
[1]
  Selectivity HCT 116-WT/ HCT116 MTAP KO: 29.85
[2]
  IC50: 2.5 nM
[3]; 144 h
  IC50: 3640 nM

## Cc1cc2cc(C(=O)N(Cc3ccc(C(F)(F)F)cn3)N(C)c3nccs3)ccc2nc1N [Example 33, 2-amino-N',3-dimethyl-N'-(thiazol-2-yl)-N-((5-(trifluoromethyl)pyridin-2-yl)methyl)quinoline-6-carbohydrazide]
[1]; Homo sapiens, HCT-116, 144 h
  IC50: 125 nM
[1]
  Selectivity HCT 116-WT/ HCT116 MTAP KO: 19.87
[2]; read-out: IC50
  IC50: 3.3 nM
[3]; 144 h
  IC50: 2480 nM

## Cc1cc2cc(C(=O)N(Cc3ccc(C(F)(F)F)cn3)N(C)c3cnccn3)ccc2nc1N [Example 34, 2-amino-N',3-dimethyl-N'-(pyrazin-2-yl) -N-((5-(trifluoromethyl)pyridin-2-yl)methyl)quinoline-6-carbohydrazide]
[1]; Homo sapiens, HCT-116, 144 h
  IC50: 58 nM
[1]
  Selectivity HCT 116-WT/ HCT116 MTAP KO: 21.90
[2]; read-out: IC50
  IC50: 1.5 nM
[3]; 144 h
  IC50: 1270 nM

## COc1cnc(N(C)N(Cc2ccc(C(F)(F)F)cn2)C(=O)c2ccc3nc(N)c(C)cc3c2)nc1 [Example 39, 2-amino-N'-(5-methoxypyrimidin-2-yl)-N',3-dimethyl-N-((5-(trifluoromethyl)pyridin-2-yl)methyl)quinoline-6-carbohydrazide]
[1]; Homo sapiens, HCT-116, 144 h
  IC50: 235 nM
[1]
  Selectivity HCT 116-WT/ HCT116 MTAP KO: 15.95
[2]; read-out: IC50
  IC50: 2.7 nM
[3]; 144 h
  IC50: 3750 nM

## Cc1cc2nc(N)c3cnn(C)c3c2cc1C(=O)N1CCCN1c1ncc(C2CCN(C)CC2)cc1F [Example 485, (4-amino-1,7-dimethyl-1H-pyrazolo[4,3-c]quinolin-8-yl)(2-(3-fluoro-5-(1-methylpiperid-4-yl)pyridin-2-yl)pyrazolidin-1-yl)methanone]
[1]; Homo sapiens, HCT-116, 144 h
  IC50: 415 nM
[1]
  Selectivity HCT 116-WT/ HCT116 MTAP KO: 11.64
[3]; 144 h
  IC50: 4830 nM
